Reference: patent publication US20190282600A1, “COMBINATION THERAPIES TARGETING TERT DEPENDENCY FOR CANCER THERAPY” (The Wistar Institute of Anatomy and Biology, priority 2018, published 2019)

Test system: NRAS mutant tumors (WM3000, M93-047)
Assay: NRAS mutant melanoma xenograft tumors in mice
Type: in vivo
Settings: for tumor growth: 6-Thio-dG 2.5 mg/kg i.p. q.d., single agent
Method: FIGS. 2a to 2c show NRAS^mut melanoma cells (FIG. 2a), BRAF-V600E/NRAS mutant cells derived from melanoma patients resistant to BRAF/MEK inhibitors (FIG. 2b), or non-transformed melanocytes and fibroblasts (FIG. 2c) were treated with 6-thio-dG for 7 days. Cell viability was measured by Alamar Blue assay and calculated relative to DMSO-treated cells. […] Cell death was assessed by PSVUe staining. Percent of apoptotic cells is shown. […] Mean TRF length expressed as kilobase pairs is indicated at the bottom. […] FIG. 2g provides a bar graph showing that DNA damage was assessed by γH2AX staining. Data represent average from three independent experiments ±SEM. *p<0.05; **p<0.01; ***p<0.005 in unpaired Student's t-test. As presented in FIG. 2h, mice bearing established WM3000 or M93-047 NRAS^mut tumors were treated with vehicle control or 6-thio-dG (2.5 mg/kg i.p; q.d). Tumor volume was measured and average tumor volume (n=4) ±SEM was plotted vs. time.
FIGS. 6a to 6e provide results showing that combining 6-thio-dG and Gamitrinib inhibits the growth of 3D melanoma spheroids and NRAS-mutant xenograft tumors. Collagen-embedded melanoma spheroids were treated with DMSO, 6-thio-dG (5 μM) and Gam (5 μM) as in FIGS. 4a to 4e. On day 7, spheroids were stained with Calcein AM (live cells; green) and EtBr (dead cells; red) and imaged using an inverted microscope (4X; scale bar=250 μm). […] P values were calculated using unpaired Student's t-test. *p<0.05, ** p<0.01, ***p<0.005, when comparing vehicle control vs. combination treatment groups. […] Kaplan Meier survival curves of mice treated for 14 days. p-values were calculated by Mantel-Cox log-rank test; *p<0.05, **p<0.01, ***p<0.005. Animal weight (grams) before treatment (Start of TX) and at the end of the study (End of TX) was assessed, recorded for every mouse enrolled in the study and plotted in FIG. 6e. […] Statistical significance was assessed by unpaired Student's t-test.
All animal experiments were performed in accordance with institutional guidelines. […] Tumor growth was measured twice weekly with digital calipers. […]

## Nc1nc2c(ncn2[C@H]2C[C@H](O)[C@@H](CO)O2)c(=S)[nH]1 [6-thio-dG, 6-thio-2′-deoxyguanosine]
  tumor growth: slowed, but did not completely abrogated tumor growth
Listed as 6-Thio-dG
  tumor growth: slowed the growth of tumors
6-Thio-dG 2.5 mg/kg, after 14 days of treatment
  reduction in tumor volume: approximately 50%
